These results are taken from ChEMBL document CHEMBL5346977, “Discovery of Novel d-(+)-Biotin-Conjugated Resorcinol Dibenzyl Ether-Based PD-L1 Inhibitors for Targeted Cancer Immunotherapy” (J Med Chem, 2023).

The source made the active and inactive calls. The calls are words filed in the database; no cut-off is given here.

Data set [1] deals with T1, Programmed cell death protein 1/Programmed cell death 1 ligand 1 (Homo sapiens) (UniProt Q15116+Q9NZQ7). Description: Inhibition of GST-tagged PD-1 (unknown origin)/His-tagged PD-L1 (unknown origin) interaction at 10 nM by HTRF binding assay relative to control. The class given is protein-complex assay. Background: TR-FRET usually uses a lanthanide donor and a delayed reading to cut background.

Data set [2] has as its target T1, Programmed cell death protein 1/Programmed cell death 1 ligand 1 (Homo sapiens). Description: Inhibition of GST-tagged PD-1 (unknown origin)/His-tagged PD-L1 (unknown origin) interaction at 100 nM by HTRF binding assay relative to control. The class given is protein-complex assay.
The target of data set [3] is T2, Programmed cell death protein 1/Programmed cell death 1 ligand 1 (Homo sapiens, UniProt Q9NZQ7). Description: Inhibition of GST-tagged PD-1 (unknown origin)/His-tagged PD-L1 (unknown origin) interaction by HTRF binding assay relative to control. The class given is protein-complex assay.
T2 sequence (Q15116 whole entry): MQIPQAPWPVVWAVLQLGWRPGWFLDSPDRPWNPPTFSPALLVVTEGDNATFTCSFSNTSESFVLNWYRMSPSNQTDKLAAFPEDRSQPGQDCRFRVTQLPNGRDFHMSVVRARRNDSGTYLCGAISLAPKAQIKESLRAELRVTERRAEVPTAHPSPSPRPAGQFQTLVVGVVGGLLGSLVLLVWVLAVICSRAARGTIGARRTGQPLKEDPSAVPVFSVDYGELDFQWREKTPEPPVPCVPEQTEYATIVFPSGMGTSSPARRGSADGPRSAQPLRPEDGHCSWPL
T2 sequence (Q9NZQ7 whole entry): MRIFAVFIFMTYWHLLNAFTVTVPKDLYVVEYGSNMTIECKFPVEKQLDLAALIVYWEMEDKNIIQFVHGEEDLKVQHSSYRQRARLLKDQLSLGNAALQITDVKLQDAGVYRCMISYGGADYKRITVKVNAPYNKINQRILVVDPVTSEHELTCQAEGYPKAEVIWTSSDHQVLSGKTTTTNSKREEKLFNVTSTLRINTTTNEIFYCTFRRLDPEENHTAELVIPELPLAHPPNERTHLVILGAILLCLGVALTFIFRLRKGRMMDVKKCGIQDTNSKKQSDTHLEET
The nature of data set [4]: AUC (0 to t) in Sprague-Dawley rat at 1 mg/kg, iv administered as single dose and measured after 48 hrs by HPLC-MS/MS analysis. The class given is ADME, organism-based. The arrangement: dose 1 mg/kg, time 48 hrs, route iv. The following applies: in vivo.
Another data set has as its system HepG2. Description: Antitumor immunity activity against human HepG2 cells expressing human PD-L1 co-cultured with human Jurkat T cells expressing human PD-1 assessed as reduction in cell viability at 10 uM incubated for 48 hrs by CCK8 assay relative to control. The class given is functional. (Formazan colour is commonly taken as a measure of viable cells.)
Data set [5] is described as follows: MRT (0 to infinity) in Sprague-Dawley rat at 1 mg/kg, iv administered as single dose and measured after 48 hrs by HPLC-MS/MS analysis. The class given is ADME, organism-based. As to conditions: in vivo.
The nature of data set [6]: Clearance in Sprague-Dawley rat at 1 mg/kg, iv administered as single dose and measured after 48 hrs by HPLC-MS/MS analysis. The class given is ADME, organism-based. As to conditions: in vivo.
A short description of data set [7]: Apparent volume of distribution in Sprague-Dawley rat at 1 mg/kg, iv administered as single dose and measured after 48 hrs by HPLC-MS/MS analysis. The class given is ADME, organism-based. The following applies: in vivo, read-out: Vz.
Data set [8] has as its system B16-F10. Description: Antitumor activity against mouse B16-F10 cells implanted in BALB/c mouse assessed as reduction in tumor growth inhibition at 50 mg/kg, ip administered once daily for 14 days relative to control. The class given is functional. As to conditions: B16-F10, 336 h, time 14 day, read-out: TGI.
The nature of data set [9]: Toxicity in allogenic BALB/c mouse implanted with mouse B16-F10 cells assessed as severe crypt necrosis in colon at 50 mg/kg, ip by H&E staining based analysis. The class given is organism-based. The following applies: in vivo.
The nature of data set [10]: MRT (0 to t) in Sprague-Dawley rat at 1 mg/kg, iv administered as single dose and measured after 48 hrs by HPLC-MS/MS analysis. The class given is ADME, organism-based. As to conditions: in vivo.
A short description of data set [11]: Initial drug concentration in Sprague-Dawley rat at 1 mg/kg, iv administered as single dose and measured after 48 hrs by HPLC-MS/MS analysis. The class given is ADME, organism-based. As to conditions: in vivo.
A short description of data set [12]: AUC (0 to infinity) in Sprague-Dawley rat at 1 mg/kg, iv administered as single dose and measured after 48 hrs by HPLC-MS/MS analysis. The class given is ADME, organism-based. The arrangement: dose 1 mg/kg, time 48 hrs, route iv. The following applies: in vivo.
The nature of data set [13]: Tmax in Sprague-Dawley rat at 1 mg/kg, iv administered as single dose and measured after 48 hrs by HPLC-MS/MS analysis. The class given is ADME, organism-based. The following applies: in vivo.
Data set [14] in a line: Half-life in Sprague-Dawley rat at 1 mg/kg, iv administered as single dose and measured after 48 hrs by HPLC-MS/MS analysis. The class given is ADME, organism-based. The following applies: in vivo.
Data set [15] is described as follows: Toxicity in allogenic BALB/c mouse implanted with mouse B16-F10 cells assessed as inflammatory cell infiltration in colon at 50 mg/kg, ip by H&E staining based analysis. The class given is organism-based. As to conditions: in vivo.
Data set [16] deals with B16-F10. Description: Antitumor immunity against mouse B16-F10 cells implanted in allogenic BALB/c mouse assessed as increase in CD3+ T cells at 50 mg/kg, ip by flow cytometric analysis (reference value: 2.51%). The class given is functional. Background: In flow cytometry, cells or beads pass a laser one at a time.
Data set [17] addresses T2, Programmed cell death protein 1/Programmed cell death 1 ligand 1. Description: Inhibition of interaction of PD-1 (unknown origin) expressed in Jurkat T cells carrying luciferase reporter under the control of NFAT promoter/PD-L1 (unknown origin) expressed in CHO cells co-expressing TCR ligand and T-cell surrogate pretreated with CHO cells for 0.5 hrs followed by Jurkat T cell addition and measured after 5 hrs by luminescence based analysis.

The target of data set [18] is T1, Programmed cell death protein 1/Programmed cell death 1 ligand 1 (Homo sapiens). Description: Inhibition of GST-tagged PD-1 (unknown origin)/His-tagged PD-L1 (unknown origin) interaction at 10 uM by HTRF binding assay. The class given is protein-complex assay.
The target in data set [19] is Programmed cell death 1 ligand 1 (Homo sapiens, UniProt Q9NZQ7). Description: Binding affinity to human PD-L1 at 20 uM by SPR analysis.
Chain of Programmed cell death 1 ligand 1 (Q9NZQ7 whole entry): as above
Data set [20] has as its target Programmed cell death 1 ligand 1 (Mus musculus) (UniProt Q9EP73). Description: Binding affinity to mouse PD-L1 at 20 uM by SPR analysis.

Chain of Programmed cell death 1 ligand 1 (Mus musculus) (Q9EP73 whole entry): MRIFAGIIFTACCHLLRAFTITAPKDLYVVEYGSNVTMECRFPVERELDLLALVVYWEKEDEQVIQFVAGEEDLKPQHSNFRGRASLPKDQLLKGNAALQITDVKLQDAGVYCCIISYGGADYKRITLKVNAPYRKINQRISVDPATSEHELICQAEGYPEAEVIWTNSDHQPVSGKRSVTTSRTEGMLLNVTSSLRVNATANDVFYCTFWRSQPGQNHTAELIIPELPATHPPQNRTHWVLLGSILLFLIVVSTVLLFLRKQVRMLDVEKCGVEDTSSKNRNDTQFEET

Broadly, the inhibition is the relative decrease from the control value, in per cent. As for `Cc1c(COc2cc(OCc3cccc(C#N)c3)c(CNC(C)(C)C(=O)NCCCNC(=O)CCCC[C@@H]3SC[C@@H]4NC(=O)N[C@@H]43)cc2Cl)cccc1-c1ccccc1`, the figures for the inhibition in data set [1] and in data set [2] were 10.4% and 81.5%, respectively.
As for `Cc1c(COc2cc(OCc3cccc(C#N)c3)c(CNC(C)(C)C(=O)N3CCC(NC(=O)CCCC[C@H]4SC[C@H]5NC(=O)N[C@H]54)CC3)cc2Cl)cccc1-c1ccc2c(c1)OCCO2`, the inhibition was -7.5% in data set [1] and 42.6% in data set [2].
For orientation: IC50 means the point on the concentration scale where inhibition reaches its midpoint. A lower IC50 goes with greater potency in that assay. Turning to `Cc1c(COc2cc(OCc3cccc(C#N)c3)c(CN3CCCCC3C(=O)N3CCN(C(=O)CCCC[C@@H]4SC[C@@H]5NC(=O)N[C@@H]54)CC3)cc2Cl)cccc1-c1ccccc1` (stereo partly specified), the inhibition was 93.1% in [1] and 102% in data set [2]. Besides, in data set [3], the IC50 amounted to 3.4 nM.
Consider `Cc1c(COc2cc(OCc3cccc(C#N)c3)c(CN3CCCCC3C(=O)NCCCNC(=O)CCCC[C@@H]3SC[C@@H]4NC(=O)N[C@@H]43)cc2Cl)cccc1-c1ccccc1` (stereo partly specified), for which the values for the inhibition in [1] and in [2] were 85.2% and 104%, respectively. In addition, the IC50 in [3] worked out at 5.6 nM.
In the case of `Cc1c(COc2cc(OCc3cccc(C#N)c3)c(CNC(C)(C)C(=O)N3CCC(NC(=O)CCCC[C@@H]4SC[C@@H]5NC(=O)N[C@@H]54)CC3)cc2Cl)cccc1-c1ccccc1`, the values for the inhibition in data set [1] and in data set [2] were 6.8% and 64.1%, respectively.
`Cc1c(COc2cc(OCc3cccc(C#N)c3)c(CNC(C)(C)C(=O)NC3CCN(C(=O)CCCC[C@H]4SC[C@H]5NC(=O)N[C@H]54)CC3)cc2Cl)cccc1-c1ccccc1`: the inhibition in data set [1] was found to be 5.9%; in data set [2], 74.6%.
For `Cc1c(COc2cc(OCc3cccc(C#N)c3)c(CN3CCCCC3C(=O)NC3CCN(C(=O)CCCC[C@@H]4SC[C@@H]5NC(=O)N[C@@H]54)CC3)cc2Cl)cccc1-c1ccccc1` (stereo partly specified), the inhibition in data set [1] came to 29.1%; in data set [2] it was 99.2%. In data set [3], this compound yielded an IC50 of 11.6 nM.
Regarding `Cc1c(COc2cc(OCc3cccc(C#N)c3)c(CNC(C)(C)C(=O)NCCNC(=O)CCCC[C@@H]3SC[C@@H]4NC(=O)N[C@@H]43)cc2Cl)cccc1-c1ccccc1`, the inhibition was 21.3% in data set [1] and 79.2% in [2].
As for `Cc1c(COc2cc(OCc3cccc(C#N)c3)c(CNC(C)(C)C(=O)N3CCN(C(=O)CCCC[C@H]4SC[C@H]5NC(=O)N[C@H]54)CC3)cc2Cl)cccc1-c1ccc2c(c1)OCCO2`, the values for the inhibition in [1] and in data set [2] were 9.1% and 59.3%, respectively.
The term MRT inf denotes a mean duration of stay, worked out from the concentration-time curve. In general, clearance refers to a measure of how efficiently the substance is removed, as volume per time. Lower therefore signals inefficient removal. As a reminder, the MRT last is a mean duration of stay, worked out from the concentration-time curve. Usually AUC stands for the area under the concentration-time curve, a measure of exposure. Lower therefore signals less exposure. What is called Tmax is the time at which the peak concentration occurs. The term half-life denotes the time in which the quantity being followed falls by half. Read a low half-life as fast loss. A word on the EC50: it is the concentration that produces a half-maximal response. With `Cc1c(COc2cc(OCc3cccc(C#N)c3)c(CN3CCCCC3C(=O)NCCN)cc2Cl)cccc1-c1ccccc1` (stereo unspecified), the AUCt in [4] is 1800 ng·h/mL. In addition, the Activity was 31% in the data set with HepG2, “Toxic” in [9], “Toxic” in data set [15] and 8.45% with B16-F10 [16]. Further, in data set [5], the MRT inf came out at 2.3 h. The clearance in data set [6] was 8.33 mL/min/kg. In addition, the Vd in data set [7] was determined as 5.3 L/kg. Moreover, the inhibition in vivo at 50 mg/kg in the data set with B16-F10 [8] worked out at 44.3%. The same compound returned an MRT last at 48 h in data set [10] of 1.8 h. For the same compound, the C0 at 48 h in data set [11] stood at 2630 ng/mL. The compound also yielded an AUC in data set [12] of 1830 ng·h/mL. In addition, in data set [13], the Tmax was 4.98 min. Moreover, the half-life in data set [14] was 6.4 h. In addition, the EC50 in [17] amounted to 4650 nM.
With `Cc1c(COc2cc(OCc3cccc(C#N)c3)c(CN3CCCCC3C(=O)NCCNC(=O)CCCC[C@H]3SC[C@H]4NC(=O)N[C@H]43)cc2Cl)cccc1-c1ccc2c(c1)OCCO2` (stereo partly specified), the inhibition in data set [1] was found to be 26.8%; in data set [2], 88.5%.
The matching figures for `Cc1c(COc2cc(OCc3cccc(C#N)c3)c(CNC(C)(C)C(=O)NCCNC(=O)CCCC[C@H]3SC[C@H]4NC(=O)N[C@H]43)cc2Cl)cccc1-c1ccc2c(c1)OCCO2`: -4% and 66.9%.
In the case of `Cc1c(COc2cc(OCc3cccc(C#N)c3)c(CN3CCCCC3C(=O)N3CCC(NC(=O)CCCC[C@@H]4SC[C@@H]5NC(=O)N[C@@H]54)CC3)cc2Cl)cccc1-c1ccccc1` (stereo partly specified), the inhibition was determined as 100% in [1] and 97.2% in [2]. In data set [3], the IC50 was determined as 4 nM.
Take `Cc1c(COc2cc(OCc3cccc(C#N)c3)c(CN3CCCCC3C(=O)N(C)CCNC(=O)CCCC[C@@H]3SC[C@@H]4NC(=O)N[C@@H]43)cc2Cl)cccc1-c1ccccc1` (stereo partly specified): the inhibition in [1] was 34.9%; in data set [2] it was 104%. In [3], this compound came in with an IC50 of 10.8 nM.
Regarding `Cc1c(COc2cc(OCc3cccc(C#N)c3)c(CN3CCCCC3C(=O)N(C)CCNC(=O)CCCC[C@@H]3SC[C@@H]4NC(=O)N[C@@H]43)cc2Cl)cccc1-c1ccc2c(c1)OCCO2` (stereo partly specified), the inhibition came to 20.1% in data set [1] and 82.6% in [2].
`Cc1c(COc2cc(OCc3cccc(C#N)c3)c(CN3CCCCC3C(=O)NC3CCN(C(=O)CCCC[C@H]4SC[C@H]5NC(=O)N[C@H]54)CC3)cc2Cl)cccc1-c1ccc2c(c1)OCCO2` (stereo partly specified): the results for the inhibition in data set [1] and in data set [2] were 11.2% and 84.7%, respectively.
`Cc1c(COc2cc(OCc3cccc(C#N)c3)c(CN3CCCCC3C(=O)N3CCN(C(=O)CCCC[C@@H]4SC[C@@H]5NC(=O)N[C@@H]54)CC3)cc2Cl)cccc1-c1ccc2c(c1)OCCO2` (stereo partly specified): the results for the inhibition in data set [1] and in [2] were 17.3% and 80.9%, respectively.
As to `O=C(O)CCCC[C@@H]1SC[C@@H]2NC(=O)N[C@@H]21`, the inhibition result in [18] is “inactive”. Moreover, the outcome in data set [19] and in data set [20] was inactive.
On to `Cc1c(COc2cc(OCc3cccc(C#N)c3)c(CNC(C)(C)C(=O)NC3CCN(C(=O)CCCC[C@H]4SC[C@H]5NC(=O)N[C@H]54)CC3)cc2Cl)cccc1-c1ccc2c(c1)OCCO2`, for which the inhibition stood at 3.7% in [1] and 50.1% in data set [2].
The matching figures for `Cc1c(COc2cc(OCc3cccc(C#N)c3)c(CNC(C)(C)C(=O)N3CCN(C(=O)CCCC[C@@H]4SC[C@@H]5NC(=O)N[C@@H]54)CC3)cc2Cl)cccc1-c1ccccc1`: 11.2% and 68.1%.
As to `Cc1c(COc2cc(OCc3cccc(C#N)c3)c(CN3CCCCC3C(=O)N3CCC(NC(=O)CCCC[C@H]4SC[C@H]5NC(=O)N[C@H]54)CC3)cc2Cl)cccc1-c1ccc2c(c1)OCCO2` (stereo partly specified), the inhibition in data set [1] stood at 13.4%; in data set [2], 90.6%.
